Results taken from patent publication US20110038791A1, “METHODS FOR INHIBITING SIX1 AND EYA PROTEINS” (priority 2008, published 2011).
Where two headings read alike, the source gives them in different places. Each block holds one compound with its values, some of them ahead of it.

Biological target: T1, human Eya2 Eya Domain (ED) (Homo sapiens, UniProt O00167)
T1 construct: a highly conserved C-terminal Eya domain (ED); made in house; host or cells: E. coli
T1 sequence (O00167 253-538 limits assumed): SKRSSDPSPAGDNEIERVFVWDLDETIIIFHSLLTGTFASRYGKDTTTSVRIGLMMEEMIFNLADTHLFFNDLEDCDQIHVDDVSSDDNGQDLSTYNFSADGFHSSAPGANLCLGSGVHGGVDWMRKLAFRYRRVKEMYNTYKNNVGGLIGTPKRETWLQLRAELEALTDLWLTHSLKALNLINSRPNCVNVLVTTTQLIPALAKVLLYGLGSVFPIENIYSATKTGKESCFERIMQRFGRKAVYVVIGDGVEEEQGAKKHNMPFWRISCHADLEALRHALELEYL
Test: Inhibition of the phosphatase activity of Eya2 Eya Domain (ED) by known phosphatase inhibitors
Assay type: biochemical
Settings: for IC50: human Eya2 ED, FIG. 20

[1] = at the concentrations that typically completely inhibit their cognate phosphatases

IC50: 1.8 ± 0.2 mM
Compound: [Na+].[Na+].[Na+].[O]=[V]([O-])([O-])[O-] [Na3VO4]

IC50: 11.3 ± 1.6 mM
Compound: [Na+].[Na+].[O]=[Mo](=[O])([O-])[O-] [Na2MoO4]

effect on ED phosphatase activity [1]: no effect
Compound: N[C@@H](Cc1ccccc1)C(=O)O [L-phenylalanine]

Continued, compound first:

Compound: C=C1[C@@H](O)[C@@H]2O[C@]3(CC[C@H](/C=C/[C@@H](C)[C@@H]4CC(C)=C[C@@]5(O[C@H](C[C@@](C)(O)C(=O)O)CC[C@H]5O)O4)O3)CC[C@H]2O[C@@H]1[C@@H](O)C[C@H](C)[C@H]1O[C@@]2(CCCCO2)CC[C@H]1C [Okadaic acid]
effect on ED phosphatase activity: no effect

Compound: cyclosporine A
effect on ED phosphatase activity: no effect

Compound: O=P(O)(O)OC(CO)CO [β-glycerophosphate]
IC50: 8.2 ± 2.1 mM

Compound: c1cnc2c(c1)ccc1cccnc12 [(1, 10)-phenanthroline]
effect on ED phosphatase activity [1]: no effect
